Where “and” joins values, the source holds several entries; their conditions need not be identical. Identical values can stand only once.

Data on 4 molecules can be found in paper PMC12775434, “Ultra-large virtual screening unveils potent agonists of the neuromodulatory orphan receptor GPR139” (Nature Communications, 2025).

For this assay, the target named is T1, GPR139 (Homo sapiens, UniProt Q6DWJ6).
T1 sequence (Q6DWJ6 1-353): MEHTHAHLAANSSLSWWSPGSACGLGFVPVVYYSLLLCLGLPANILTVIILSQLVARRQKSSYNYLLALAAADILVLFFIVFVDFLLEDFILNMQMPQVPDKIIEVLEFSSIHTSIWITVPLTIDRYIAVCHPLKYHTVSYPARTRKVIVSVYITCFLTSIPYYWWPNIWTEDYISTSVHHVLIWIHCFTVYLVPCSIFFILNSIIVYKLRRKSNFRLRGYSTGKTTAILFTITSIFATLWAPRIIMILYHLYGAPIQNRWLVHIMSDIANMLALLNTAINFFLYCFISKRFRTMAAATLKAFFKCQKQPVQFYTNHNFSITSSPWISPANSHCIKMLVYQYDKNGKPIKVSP
The experiment in a line: Ca2+ mobilization assay, HEK293A cells transiently expressing GPR139. In kind it is cell-based. The following applies: for Emax: HEK293-A, normalized to JNJ-63533054 (JNJ(S)); for Emax / EC50: HEK293A transient; for EC50: Supplementary Table 6, read-out: pEC50 Ca2+ (converted); for Ca2+ signal (% of JNJ-63533054): replicate experiments. Here is the method: Primary screening and pharmacological characterization of compounds were performed using a CHO-K1 cell line that stably expresses human GPR139 (GPR139-CHOk1). The GPR139-CHOk1 cell line was kindly provided by H. Lundbeck A/S, Denmark[24]. GPR139-CHOk1 cells were grown in Ham’s F-12 Kaighn’s Modification Medium (ThermoFisher #21127030) supplemented with 10% dialyzed fetal bovine serum (US origin, ThermoFisher #26400044), 100 units/mL Penicillin-Streptomycin (ThermoFisher #15140122), and 1 mg/mL Geneticin (ThermoFisher #11811031). […] M1R-CHOk1 cells were purchased from The Missouri S&T cDNA Resource Center (#CEM100TN00). M1R-CHOk1 cells were grown in Ham’s F12 Medium (ThermoFisher #21765029) supplemented with 10% fetal bovine serum (Brazilian origin, ThermoFisher #10270106), 100 units/mL Penicillin-Streptomycin, and 0.25 mg/mL Geneticin. HEK293A cells transiently transfected with GPR139 were used for additional pharmacological assessment of signaling pathways activated by GPR139. HEK239A cells were generously provided by Dr. Asuka Inoue, Tohoku University, Japan. HEK293A cells were grown in Dulbecco’s Modified Eagle Medium (ThermoFisher #31966047) supplemented with 10% dialyzed fetal bovine serum and 100 units/mL Penicillin-Streptomycin. Cell lines were maintained at 37 °C in humidified incubator equilibrated with 5% CO2.
30,000 GPR139- or M1R-CHOk1 cells/well were seeded in black clear bottom tissue culture treated 96-well plates (Greiner #655090) and grown for 20–24 h. Cells were washed with HEPES buffer (Hank’s Balanced Salt Solution (HBBS) supplemented with 20 mM HEPES, 1 mM MgCl2, and 1 mM CaCl2; pH 7.4). Cells were loaded with 50 µL of 2 µM Fluo-4 AM dye (ThermoFisher #F14202) in HEPES buffer supplemented with 2.5 mM probenecid and 0.01% Pluronic F-68 (ThermoFisher #24040032) for 1 h at 37 °C. Cells were washed with HEPES buffer. 50 µL HEPES buffer supplemented with 2.5 mM probenecid was added, and the cells were incubated for 10 min at 37 °C before measurement. 50 µL test compounds diluted in HEPES buffer from DMSO stocks (final DMSO concentration of maximally 0.3%) were added automatically after baseline measurements. The intracellular calcium mobilization was measured on a FlexStation 3 Multimode Microplate Reader (Molecular Devices) at 37 °C with filters for excitation of 485 nm and emission of 525 nm.
HEK293A cells were reverse-transfected with human GPR139 for Ca^2+ mobilization experiments with transiently expressed GPR139. The construct has been generated and described previously by Nøhr et al.. DNA and Lipofectamine 2000 Transfection Reagent (ThermoFisher #11668019) were separately diluted in Opti-MEM I Reduced Serum Medium (ThermoFisher #31985070). 10 ng GPR139 DNA and 250 nL Lipofectamine were used for each well. The dilutions were incubated at room temperature for 5 min. Then, DNA and Lipofectamine dilutions were combined in 1:1 volumetric ratio and incubated at room temperature for 20 min to obtain the transfection solutions. 10 µL transfection solution and 20,000 cells in 100 µL growth medium were distributed in each well of black clear bottom tissue culture treated 96-well plates that were previously coated with poly-D-lysine (Sigma-Aldrich #P0899). Cells were grown for approximately 48 h. A calcium mobilization assay was performed as described.
Pharmacological data and statistical analyses were performed in GraphPad Prism v9–10 (Graphpad Software Inc., San Diego, CA), which are also specifically described in the figure and table legends. The functional assay responses were normalized to buffer (0%) and Lundbeck Cmp 1a or JNJ-63533054 (100%), for Ca^2+ and IP1 experiments in the GPR139-CHOk1 stable cell line or Ca^2+, G protein activation, and arrestin-3 recruitment experiments in the HEK293A cells transiently transfected with GPR139, respectively. Data are from at least three independent experiments, unless stated otherwise. […]
A general note: Calcium flux is commonly read through the fluorescence of an indicator in the cells.

What is called Emax is the greatest response seen or fitted, relative to the assay's reference. Turning to `Cc1cscc1-c1nc(CC(=O)N[C@@H](C)c2ccccc2)no1` [1.1(S)], the Emax worked out at 146 ± 16% and the EC50 is 12.6 nM. Moreover, under “log [Compound] M -5.0”, the “Ca2+ signal (% of JNJ-63533054)” value is 135 % of JNJ-63533054 and 150 % of JNJ-63533054. Further, the “Ca2+ signal (% of JNJ-63533054)” value (log [Compound] M -5.5) is 108 % of JNJ-63533054 and 167 % of JNJ-63533054. Besides, the “Ca2+ signal (% of JNJ-63533054)” value (log [Compound] M -6.0) was 164 % of JNJ-63533054 and 119 % of JNJ-63533054 and 118 % of JNJ-63533054. The “Ca2+ signal (% of JNJ-63533054)” value (log [Compound] M -6.5) was 143 % of JNJ-63533054 and 116 % of JNJ-63533054 and 108 % of JNJ-63533054. For the same molecule, the “Ca2+ signal (% of JNJ-63533054)” value (log [Compound] M -7.0) was 137 % of JNJ-63533054 and 106 % of JNJ-63533054 and 101 % of JNJ-63533054. The “Ca2+ signal (% of JNJ-63533054)” value (log [Compound] M -7.5) is 103 % of JNJ-63533054 and 92 % of JNJ-63533054 and 129 % of JNJ-63533054. Further, for the setting “log [Compound] M -8.0”, the “Ca2+ signal (% of JNJ-63533054)” value was 70 % of JNJ-63533054 and 74 % of JNJ-63533054 and 57 % of JNJ-63533054. Besides, the “Ca2+ signal (% of JNJ-63533054)” value (log [Compound] M -8.5) was 28 % of JNJ-63533054 and 33 % of JNJ-63533054 and 37 % of JNJ-63533054. Also, under “log [Compound] M -9.0”, the “Ca2+ signal (% of JNJ-63533054)” value was 29 % of JNJ-63533054 and 19 % of JNJ-63533054 and 13 % of JNJ-63533054.
For `CC(NC(=O)CNC(=O)c1cccc(Cl)c1)c1ccccc1` (centres unmarked) [JNJ-63533054, reference compound], the Emax came to 133 ± 14% and the EC50 is 15.8 nM. In addition, the “Ca2+ signal (% of JNJ-63533054)” value (log [Compound] M -5.0, listed as JNJ (S)) was 174 % of JNJ-63533054 and 107 % of JNJ-63533054 and 106 % of JNJ-63533054. Moreover, the “Ca2+ signal (% of JNJ-63533054)” value (log [Compound] M -5.5, listed as JNJ (S)) is 140 % of JNJ-63533054 and 98 % of JNJ-63533054 and 168 % of JNJ-63533054. Further, under “log [Compound] M -6.0, listed as JNJ (S)”, the “Ca2+ signal (% of JNJ-63533054)” value was 143 % of JNJ-63533054 and 109 % of JNJ-63533054 and 138 % of JNJ-63533054. The “Ca2+ signal (% of JNJ-63533054)” value (log [Compound] M -6.5, listed as JNJ (S)) is 110 % of JNJ-63533054 and 107 % of JNJ-63533054 and 98 % of JNJ-63533054. Further, the “Ca2+ signal (% of JNJ-63533054)” value (log [Compound] M -7.0, listed as JNJ (S)) is 101 % of JNJ-63533054 and 88 % of JNJ-63533054 and 92 % of JNJ-63533054. The “Ca2+ signal (% of JNJ-63533054)” value (log [Compound] M -7.5, listed as JNJ (S)) is 90 % of JNJ-63533054 and 115 % of JNJ-63533054 and 68 % of JNJ-63533054. For the same molecule, the “Ca2+ signal (% of JNJ-63533054)” value (log [Compound] M -8.0, listed as JNJ (S)) was 51 % of JNJ-63533054 and 82 % of JNJ-63533054 and 41 % of JNJ-63533054. Also, the “Ca2+ signal (% of JNJ-63533054)” value (log [Compound] M -8.5, listed as JNJ (S)) is 37 % of JNJ-63533054 and 28 % of JNJ-63533054 and 33 % of JNJ-63533054. Further, for the setting “log [Compound] M -9.0, listed as JNJ (S)”, the “Ca2+ signal (% of JNJ-63533054)” value is 13 % of JNJ-63533054 and 3.67 % of JNJ-63533054 and 12 % of JNJ-63533054.
Turning to `Cc1cscc1-c1nc(CC(=O)N[C@H](C)c2ccccc2)no1` [1.1(R)], the maximal response (Emax) is 139 ± 24% and the EC50 is 398 nM. Further, the “Ca2+ signal (% of JNJ-63533054)” value (log [Compound] M -5.0) was 181 % of JNJ-63533054 and 86 % of JNJ-63533054 and 180 % of JNJ-63533054. For the same molecule, the “Ca2+ signal (% of JNJ-63533054)” value (log [Compound] M -5.5) is 143 % of JNJ-63533054 and 96 % of JNJ-63533054 and 154 % of JNJ-63533054. Moreover, the “Ca2+ signal (% of JNJ-63533054)” value (log [Compound] M -6.0) was 90 % of JNJ-63533054 and 77 % of JNJ-63533054 and 95 % of JNJ-63533054. The “Ca2+ signal (% of JNJ-63533054)” value (log [Compound] M -6.5) is 70 % of JNJ-63533054 and 52 % of JNJ-63533054 and 66 % of JNJ-63533054. Further, for the setting “log [Compound] M -7.0”, the “Ca2+ signal (% of JNJ-63533054)” value was 15 % of JNJ-63533054 and 41 % of JNJ-63533054 and 28 % of JNJ-63533054. Moreover, the “Ca2+ signal (% of JNJ-63533054)” value (log [Compound] M -7.5) is -6.33 % of JNJ-63533054 and 15 % of JNJ-63533054 and 7 % of JNJ-63533054. Where the note is “log [Compound] M -8.0”, the “Ca2+ signal (% of JNJ-63533054)” value was -9 % of JNJ-63533054 and 14 % of JNJ-63533054 and -7 % of JNJ-63533054. The “Ca2+ signal (% of JNJ-63533054)” value (log [Compound] M -8.5) was 4 % of JNJ-63533054 and 2.33 % of JNJ-63533054 and -0.667 % of JNJ-63533054. Further, the “Ca2+ signal (% of JNJ-63533054)” value (log [Compound] M -9.0) is 8 % of JNJ-63533054 and 0.333 % of JNJ-63533054 and -15 % of JNJ-63533054.
With `C[C@@H](NC(=O)CNC(=O)c1cccc(Cl)c1)c1ccccc1` [JNJ(R), reference compound], the Emax amounted to 101 ± 18% and the EC50 was 1260 nM. For the same molecule, under “log [Compound] M -5.0”, the “Ca2+ signal (% of JNJ-63533054)” value is 95 % of JNJ-63533054 and 63 % of JNJ-63533054 and 134 % of JNJ-63533054. For the same molecule, under “log [Compound] M -5.5”, the “Ca2+ signal (% of JNJ-63533054)” value was 58 % of JNJ-63533054 and 81 % of JNJ-63533054 (2×). The “Ca2+ signal (% of JNJ-63533054)” value (log [Compound] M -6.0) was 27 % of JNJ-63533054 and 52 % of JNJ-63533054 and 38 % of JNJ-63533054. Moreover, under “log [Compound] M -6.5”, the “Ca2+ signal (% of JNJ-63533054)” value is 14 % of JNJ-63533054 and 29 % of JNJ-63533054 and 4.33 % of JNJ-63533054. Moreover, for the setting “log [Compound] M -7.0”, the “Ca2+ signal (% of JNJ-63533054)” value was 7 % of JNJ-63533054 and 9 % of JNJ-63533054 and -10 % of JNJ-63533054. Also, the “Ca2+ signal (% of JNJ-63533054)” value (log [Compound] M -7.5) was 5 % of JNJ-63533054 and 9 % of JNJ-63533054 and -13 % of JNJ-63533054. Moreover, the “Ca2+ signal (% of JNJ-63533054)” value (log [Compound] M -8.0) is -3.33 % of JNJ-63533054 and 8 % of JNJ-63533054 and -14 % of JNJ-63533054. Besides, the “Ca2+ signal (% of JNJ-63533054)” value (log [Compound] M -8.5) is -0.667 % of JNJ-63533054 and 11 % of JNJ-63533054 and -10 % of JNJ-63533054. For the same molecule, the “Ca2+ signal (% of JNJ-63533054)” value (log [Compound] M -9.0) is -2.67 % of JNJ-63533054 and 15 % of JNJ-63533054 and -6 % of JNJ-63533054.
